In assay [1] the test system is GUMC-403. In words: AC50 for reduction of cell viability; higher = less potent. Particulars: library / dose series: MIPE library, 11-point 1:3 dilution; 48 h.
Assay [2] has as its system GUMC-403. Description: viability at highest tested concentration (max response) relative to DMSO (% of DMSO control); higher = less cytotoxic. As to conditions: library / dose series: MIPE library, 11-point 1:3 dilution; top concentration 46.1 µM; 48 h. In a few lines: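 Patient-derived GUMC-403 papilloma cells grown by conditional reprogramming were plated at 700/well in 5 μL F + Y medium in 1536-well plates and incubated overnight at 37 °C. They then received 23 nL of MIPE 4.0 compounds by pin tool (11-point 1:3 series) for 48 h. CellTiter-Glo luminescence was read on a ViewLux and normalised with DMSO wells as 100% and empty wells as 0%. The value is viability at the highest tested concentration relative to DMSO control.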

From the supplement of paper PMC6723410 come the findings set out here.

In the case of `CCc1c(O)cc(O)c(C(=O)c2ccc(OCCN3CCOCC3)c(OC)c2)c1CC(=O)N(CCOC)CCOC`, the “AC50 for reduction of cell viability” value with GUMC-403 [1] came to 2.09 µM. The molecule further had a viability in the assay on GUMC-403 [2] of 56.6.
For the molecule `CC(C)Oc1cc(Nc2nc(N[C@@H](C)c3ccc(F)cn3)ncc2Cl)n[nH]1`, the “AC50 for reduction of cell viability” value with GUMC-403 [1] was 8.33 µM. Also, the viability in the assay with GUMC-403 [2] turned out to be 58.4.
For the molecule `CC(C)(O)Cn1c(NC(=O)c2ccc(-c3cn[nH]c3)s2)nc2cc(CN3CCOCC3)ccc21`, the “AC50 for reduction of cell viability” value in the assay on GUMC-403 [1] turned out to be 2.35 µM. For the same molecule, the viability in the assay on GUMC-403 [2] stood at 5.55.
In the case of `C[C@@H]1O[C@@H](O[C@H]2C[C@@H](O)[C@]3(CO)[C@H]4[C@H](O)C[C@]5(C)[C@@H](C6=CC(=O)OC6)CC[C@]5(O)[C@@H]4CC[C@]3(O)C2)[C@H](O)[C@H](O)[C@H]1O`, the “AC50 for reduction of cell viability” value in the assay on GUMC-403 [1] was found to be 0.0296 µM. Besides, in the assay on GUMC-403 [2], the viability is 75.4.
For `COC(=O)/C=C/C(=O)OC`, in that order: 3.72 µM and 55.3.
As to `CCc1cnn2c(NCc3ccc[n+]([O-])c3)cc(N3CCCC[C@H]3CCO)nc12`, in the assay with GUMC-403 [1], the “AC50 for reduction of cell viability” value came to 0.0469 µM. For the same molecule, in the assay with GUMC-403 [2], the viability is 62.2.
Regarding `CNCC[C@H](Oc1cccc2ccccc12)c1cccs1`, the “AC50 for reduction of cell viability” value in the assay with GUMC-403 [1] is 10.5 µM. Besides, the viability with GUMC-403 [2] came to 36.
With `C[C@H]1CCC/C=C/C2C[C@H](O)C[C@H]2[C@H](O)/C=C/C(=O)O1` (stereo partly specified), the “AC50 for reduction of cell viability” value in the assay on GUMC-403 [1] was 0.0105 µM. The molecule also had a viability in the assay with GUMC-403 [2] of 31.1.
For `Cc1c(CN2CCN(C(=O)[C@H](C)O)CC2)sc2c(N3CCOCC3)nc(-c3cnc(N)nc3)nc12`, in that order: 0.148 µM and 54.1.
For `COC1=C2C[C@@H](C)C[C@H](OC)[C@H](O)[C@@H](C)/C=C(\C)[C@H](OC(N)=O)[C@@H](OC)/C=C/C=C(\C)C(=O)NC(=CC1=O)C2=O`, the “AC50 for reduction of cell viability” value in the assay on GUMC-403 [1] stood at 4.69 µM. Also, the viability in the assay on GUMC-403 [2] came out at 23.9.
On to `CSCC[C@H](NC(=O)[C@H](Cc1c[nH]c2ccccc12)NC(=O)CCNC(=O)OC(C)(C)C)C(=O)N[C@@H](CC(=O)O)C(=O)N[C@@H](Cc1ccccc1)C(N)=O`, for which the “AC50 for reduction of cell viability” value in the assay on GUMC-403 [1] turned out to be 5.9 µM. Also, in the assay with GUMC-403 [2], the viability stood at 30.1.
Take `C[C@@]12OC(=O)[C@@]1(NC(=O)[C@@H]2CCCl)[C@@H](O)[C@H]\3CCC\C=C3`: the “AC50 for reduction of cell viability” value in the assay on GUMC-403 [1] was determined as 3.72 µM. This molecule had a viability in the assay on GUMC-403 [2] of 6.32.
With `C[C@@H]1O[C@@H](O[C@H]\2CC[C@]\3(C)[C@@H]4CC[C@]5(C)[C@@H](CC[C@@]5(O)[C@H]4CCC3=C2)C/6=C/OC(=O)/C=C6)[C@H](O)[C@H](O)[C@@H]1O`, in the assay with GUMC-403 [1], the “AC50 for reduction of cell viability” value is 0.0166 µM. Besides, the viability with GUMC-403 [2] was found to be 44.3.
For the molecule `Cc1c(CN2CCN([S+](C)(=O)[O-])CC2)sc2c(N3CCOCC3)nc(-c3cnc(N)nc3)nc12`, the “AC50 for reduction of cell viability” value in the assay on GUMC-403 [1] turned out to be 0.118 µM. This molecule also showed a viability in the assay on GUMC-403 [2] of 41.9.
As for `CC[C@@H]1[C@@H](C)O[C@@](O)([C@@H](C)[C@H](O)[C@H](C)[C@H]2OC(=O)/C=C/C=C/[C@H](C)[C@@H]([C@@H](C)[C@@H](O)[C@H](C)[C@@]3(O)C[C@@H](O[C@H]4C[C@H](O)[C@H](O)[C@H](C)O4)[C@H](CC)[C@@H](C)O3)OC(=O)/C=C/C=C/[C@@H]2C)C[C@H]1O[C@H]1C[C@H](O)[C@H](O)[C@H](C)O1`, the “AC50 for reduction of cell viability” value in the assay with GUMC-403 [1] was 26.4 µM. For the same molecule, the viability in the assay with GUMC-403 [2] was determined as 8.03.
Turning to `CC(/C=C/C(=O)NO)=C\[C@@H](C)C(=O)c1ccc(N(C)C)cc1`, the “AC50 for reduction of cell viability” value in the assay with GUMC-403 [1] worked out at 20.9 µM. Further, the viability in the assay with GUMC-403 [2] is 26.
For `CC[S+](=O)([O-])Nc1ccc2c(c1)/C(=C(/Nc1ccc(CN3CCCCC3)cc1)c1ccccc1)C(=O)N2`, in that order: 1.32 µM and 50.
`Cc1n[nH]c2ccc(-c3cncc(OC[C@@H](N)Cc4ccccc4)c3)cc12`: the “AC50 for reduction of cell viability” value with GUMC-403 [1] turned out to be 2.64 µM. In the assay on GUMC-403 [2], this molecule returned a viability of 5.22.
